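Protocol summary: plate cells (96-well), add compound at 5 concentrations, incubate 48 h, interpolate endpoints linearly. GI50 is the concentration that inhibits growth by half. Definition used: TGI = concentration required for complete inhibition of growth.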
Experiments:
Assay in all cases: NCI tumour cell line growth inhibition, 48 h
786-0 renal = system: 786-0 renal
A549 NSCLC = system: A549 NSCLC
CAKI-1 renal = system: CAKI-1 renal
CCRF-CEM leukemia = system: CCRF-CEM leukemia
DU-145 prostate = system: DU-145 prostate
EKVX NSCLC = system: EKVX NSCLC
HCC-2998 colon = system: HCC-2998 colon
HCT-15 colon = system: HCT-15 colon
HL-60(TB) leukemia = system: HL-60(TB) leukemia
HOP-62 NSCLC = system: HOP-62 NSCLC
HOP-92 NSCLC = system: HOP-92 NSCLC
HT29 colon = system: HT29 colon
IGROV1 ovarian = system: IGROV1 ovarian
K-562 leukemia = system: K-562 leukemia
KM12 colon = system: KM12 colon
LOX IMVI melanoma = system: LOX IMVI melanoma
MALME-3M melanoma = system: MALME-3M melanoma
MCF7 breast = system: MCF7 breast
MDA-MB-231 breast = system: MDA-MB-231 breast
MDA-MB-435 = system: MDA-MB-435
MDA-N = system: MDA-N
MOLT-4 leukemia = system: MOLT-4 leukemia
NCI-H23 lung = system: NCI-H23 lung
OVCAR-4 ovarian = system: OVCAR-4 ovarian
OVCAR-8 ovarian = system: OVCAR-8 ovarian
PC-3 prostate = system: PC-3 prostate
RPMI-8226 leukemia = system: RPMI-8226 leukemia
RXF 393 renal = system: RXF 393 renal
SF-268 CNS = system: SF-268 CNS
SF-295 CNS = system: SF-295 CNS
SK-MEL-5 melanoma = system: SK-MEL-5 melanoma
SK-OV-3 ovarian = system: SK-OV-3 ovarian
SN12C renal = system: SN12C renal
SNB-75 CNS = system: SNB-75 CNS
SR leukemia = system: SR leukemia
SW-620 colon = system: SW-620 colon
T-47D breast = system: T-47D breast
TK-10 renal = system: TK-10 renal
UACC-257 melanoma = system: UACC-257 melanoma
A498 renal = system: A498 renal
ACHN renal = system: ACHN renal
BT-549 breast = system: BT-549 breast
COLO 205 colon = system: COLO 205 colon
HCT-116 colon = system: HCT-116 colon
HS 578T breast = system: HS 578T breast
NCI-H226 lung = system: NCI-H226 lung
NCI/ADR-RES ovarian = system: NCI/ADR-RES ovarian
OVCAR-3 ovarian = system: OVCAR-3 ovarian
OVCAR-5 ovarian = system: OVCAR-5 ovarian
SK-MEL-28 melanoma = system: SK-MEL-28 melanoma
UO-31 renal = system: UO-31 renal
M14 melanoma = system: M14 melanoma
NCI-H460 lung = system: NCI-H460 lung
NCI-H522 lung = system: NCI-H522 lung
SF-539 CNS = system: SF-539 CNS
SK-MEL-2 melanoma = system: SK-MEL-2 melanoma
SNB-19 CNS = system: SNB-19 CNS
U251 CNS = system: U251 CNS
UACC-62 melanoma = system: UACC-62 melanoma

## CCN(CC)CCN1CCNc2c3cc(OC)ccc3nc3c([N+](=O)[O-])ccc1c23
786-0 renal
  TGI: 1.61 µM
A549 NSCLC
  TGI: 9.07 µM
CAKI-1 renal
  TGI: > 10 µM
CCRF-CEM leukemia
  TGI: 2.32 µM
DU-145 prostate
  TGI: > 10 µM
EKVX NSCLC
  TGI: 4.68 µM
HCC-2998 colon
  TGI: 2.03 µM
HCT-15 colon
  TGI: 2.47 µM
HL-60(TB) leukemia
  TGI: 2.12 µM
HOP-62 NSCLC
  TGI: 2.64 µM
HOP-92 NSCLC
  TGI: 6.18 µM
HT29 colon
  TGI: 6.39 µM
IGROV1 ovarian
  TGI: 9.25 µM
K-562 leukemia
  TGI: > 10 µM
KM12 colon
  TGI: 6.21 µM
LOX IMVI melanoma
  TGI: 3.21 µM
MALME-3M melanoma
  TGI: 3.23 µM
MCF7 breast
  TGI: 2.98 µM
MDA-MB-231 breast
  TGI: 2.23 µM
MDA-MB-435
  TGI: 2.69 µM
MDA-N
  TGI: 2.27 µM
MOLT-4 leukemia
  TGI: 1.42 µM
NCI-H23 lung
  TGI: 2.44 µM
OVCAR-4 ovarian
  TGI: 3.12 µM
OVCAR-8 ovarian
  TGI: > 10 µM
PC-3 prostate
  TGI: 2.25 µM
RPMI-8226 leukemia
  TGI: 2.87 µM
RXF 393 renal
  TGI: 2.11 µM
SF-268 CNS
  TGI: > 10 µM
SF-295 CNS
  TGI: 4.28 µM
SK-MEL-5 melanoma
  TGI: 2.92 µM
SK-OV-3 ovarian
  TGI: > 10 µM
SN12C renal
  TGI: 2.36 µM
SNB-75 CNS
  TGI: 6.43 µM
SR leukemia
  TGI: 1.19 µM
SW-620 colon
  TGI: 5.4 µM
T-47D breast
  TGI: > 10 µM
TK-10 renal
  TGI: > 10 µM
UACC-257 melanoma
  TGI: 5.7 µM

## NCC(O)CNCC/C=C\C/C=C\C/C=C\C/C=C\C/C=C\C/C=C\CCCCC/C=C\CCNCC(O)CN (stereo unspecified)
786-0 renal
  TGI: 3.07 µM
A498 renal
  TGI: 3.34 µM
ACHN renal
  TGI: 3.35 µM
BT-549 breast
  TGI: 7.47 µM
CAKI-1 renal
  TGI: 3.63 µM
COLO 205 colon
  TGI: 3.41 µM
DU-145 prostate
  TGI: 3.26 µM
EKVX NSCLC
  TGI: 2.15 µM
HCT-116 colon
  TGI: 3.18 µM
HCT-15 colon
  TGI: 3.03 µM
HOP-62 NSCLC
  TGI: 3.53 µM
HS 578T breast
  TGI: 2.74 µM
K-562 leukemia
  TGI: > 100 µM
MALME-3M melanoma
  TGI: 4.34 µM
MDA-MB-231 breast
  TGI: 3.18 µM
MDA-N
  TGI: 3.09 µM
NCI-H226 lung
  TGI: 13.4 µM
NCI/ADR-RES ovarian
  TGI: 2.82 µM
OVCAR-3 ovarian
  TGI: 3.42 µM
OVCAR-4 ovarian
  TGI: 3.61 µM
OVCAR-5 ovarian
  TGI: 3.41 µM
OVCAR-8 ovarian
  TGI: 3.21 µM
PC-3 prostate
  TGI: 3.49 µM
SF-295 CNS
  TGI: 4.29 µM
SK-MEL-28 melanoma
  TGI: 14 µM
SK-OV-3 ovarian
  TGI: 5.59 µM
SN12C renal
  TGI: 3.03 µM
SNB-75 CNS
  TGI: 3.2 µM
TK-10 renal
  TGI: 2.96 µM
UACC-257 melanoma
  TGI: 4.43 µM
UO-31 renal
  TGI: 3.72 µM

## Cc1ccc(S(=O)(=O)NC(CCC(=O)Nc2ccc(Cl)cc2)C(=O)Nc2ccc(Cl)cc2)cc1 (stereo unspecified)
786-0 renal
  GI50: 0.726 µM
  TGI: 5.69 µM
A498 renal
  GI50: 0.717 µM
  TGI: 5.34 µM
A549 NSCLC
  GI50: 0.178 µM
  TGI: 6.72 µM
ACHN renal
  GI50: 0.248 µM
  TGI: 6.57 µM
BT-549 breast
  GI50: 0.967 µM
  TGI: 6.71 µM
CAKI-1 renal
  GI50: 0.473 µM
  TGI: 8.14 µM
CCRF-CEM leukemia
  GI50: 0.203 µM
  TGI: 7.22 µM
COLO 205 colon
  GI50: 0.531 µM
  TGI: 2.15 µM
DU-145 prostate
  GI50: 1.2 µM
  TGI: 9.89 µM
EKVX NSCLC
  GI50: 2.01 µM
  TGI: 9.31 µM
HCC-2998 colon
  GI50: 1.48 µM
  TGI: 7.14 µM
HCT-116 colon
  GI50: 0.139 µM
  TGI: 7.05 µM
HCT-15 colon
  GI50: 0.118 µM
  TGI: 7.36 µM
HL-60(TB) leukemia
  GI50: 0.369 µM
  TGI: 5.76 µM
HOP-62 NSCLC
  GI50: 0.62 µM
  TGI: 2.07 µM
HOP-92 NSCLC
  GI50: 0.805 µM
  TGI: 2.76 µM
HS 578T breast
  GI50: 1.32 µM
  TGI: 7.5 µM
HT29 colon
  GI50: 1.35 µM
  TGI: 9.85 µM
IGROV1 ovarian
  GI50: 0.852 µM
  TGI: 8.58 µM
K-562 leukemia
  GI50: 0.0519 µM
  TGI: 6.3 µM
KM12 colon
  GI50: 0.112 µM
  TGI: 6 µM
LOX IMVI melanoma
  GI50: 0.258 µM
  TGI: 5.63 µM
M14 melanoma
  GI50: 0.0541 µM
  TGI: 6.58 µM
MALME-3M melanoma
  GI50: 1.82 µM
  TGI: 8.27 µM
MCF7 breast
  GI50: 0.287 µM
  TGI: 6.51 µM
MDA-MB-231 breast
  GI50: 0.263 µM
  TGI: 4.23 µM
MDA-MB-435
  GI50: 0.169 µM
  TGI: 9.74 µM
MOLT-4 leukemia
  GI50: 0.691 µM
  TGI: 7.66 µM
NCI-H226 lung
  GI50: 0.841 µM
  TGI: 5.67 µM
NCI-H23 lung
  GI50: 1.49 µM
  TGI: 9.21 µM
NCI-H460 lung
  GI50: 0.204 µM
  TGI: 7.33 µM
NCI-H522 lung
  GI50: 0.496 µM
  TGI: 7.01 µM
NCI/ADR-RES ovarian
  GI50: 1.03 µM
  TGI: 7.63 µM
OVCAR-3 ovarian
  GI50: 0.93 µM
  TGI: 5.8 µM
OVCAR-4 ovarian
  GI50: 0.775 µM
  TGI: 3.46 µM
OVCAR-5 ovarian
  GI50: 4.31 µM
  TGI: 11.4 µM
OVCAR-8 ovarian
  GI50: 0.724 µM
  TGI: 8.62 µM
PC-3 prostate
  GI50: 0.396 µM
  TGI: 6.33 µM
RPMI-8226 leukemia
  GI50: 0.826 µM
  TGI: 7.43 µM
RXF 393 renal
  GI50: 1.89 µM
  TGI: 7.31 µM
SF-268 CNS
  GI50: 0.862 µM
  TGI: 8.04 µM
SF-295 CNS
  GI50: 0.187 µM
  TGI: 0.956 µM
SF-539 CNS
  GI50: 0.21 µM
  TGI: 1.54 µM
SK-MEL-2 melanoma
  GI50: 0.57 µM
  TGI: 6.64 µM
SK-MEL-28 melanoma
  GI50: 0.625 µM
  TGI: 6.48 µM
SK-MEL-5 melanoma
  GI50: 0.235 µM
  TGI: 3.94 µM
SK-OV-3 ovarian
  GI50: 0.869 µM
  TGI: 4.36 µM
SN12C renal
  GI50: 0.685 µM
  TGI: 8.84 µM
SNB-19 CNS
  GI50: 0.707 µM
  TGI: 4.4 µM
SNB-75 CNS
  GI50: 0.743 µM
  TGI: 2.23 µM
SR leukemia
  GI50: 0.197 µM
  TGI: 6.76 µM
SW-620 colon
  GI50: 0.555 µM
  TGI: 8.59 µM
T-47D breast
  GI50: 0.151 µM
  TGI: 2.64 µM
TK-10 renal
  GI50: 2.95 µM
  TGI: 10 µM
U251 CNS
  GI50: 0.574 µM
  TGI: 5.13 µM
UACC-257 melanoma
  GI50: 0.702 µM
  TGI: 7.5 µM
UACC-62 melanoma
  GI50: 0.0967 µM
  TGI: 0.367 µM
UO-31 renal
  GI50: 0.401 µM
  TGI: 7.28 µM
